These are literature values, as cited in patent US6767507B1, “Uncomplexed cyclodextrin compositions for odor control” (The Procter & Gamble Company, priority 1998, dated 2004).

Molecules are shown by their SMILES.

Details in the first data set: not given
Consider `ClC=CC[N+]12CN3CN(CN(C3)C1)C2.[Cl-]` [Dowicil 200, 1-(3-Chlorallyl)-3,5,7-triaza-1-azoniaadamantane chloride], for which the “solubility in water” value is on record as “freely soluble in water”.

The data set is the same for the next values; noted with them: in water.
Take `OCCOc1ccccc1` [2-phenoxyethanol]: the water solubility entry was “about 2.67%”.
For `OCCc1ccccc1` [2-phenylethanol], the water solubility entry was “about 2%”.
On to `O=[N+]([O-])C1(Br)COCOC1` [Bronidox L, 5-bromo-5-nitro-1,3-dioxane], for which the water solubility entry is “about 0.46%”.
`CC1(C)C(=O)N(CO)C(=O)N1CO` [DMDM hydantoin, 1,3-bis(hydroxymethyl)-5,5-dimethyl-2,4-imidazolidinedione]: the water solubility result is “more than 50%”.
Turning to `OCc1ccccc1` [benzyl alcohol], the water solubility entry is recorded as “about 4%”.
For `[H]/N=C(\N/C(=N/[H])NCCCCCCNC(=N)NC(=N)Nc1ccc(Cl)cc1)Nc1ccc(Cl)cc1` [chlorhexidine diacetate, 1,1′-hexamethylene bis(5-(p-chlorophenyl)biguanide), reference compound], the water solubility entry is “about 1.8%”.
As for `[H]/N=C(\N/C(=N/[H])NCCCCCCNC(=N)NC(=N)Nc1ccc(Cl)cc1)Nc1ccc(Cl)cc1` [chlorhexidine digluconate, 1,1′-hexamethylene bis(5-(p-chlorophenyl)biguanide), reference compound], the water solubility entry is “about 70%”.
With `CC(C)(O)C(Cl)(Cl)Cl` [chlorobutanol, 1,1,1-Trichloro-2-methylpropan-2-ol], the water solubility entry was “about 0.8%”.
Take `[Na+].[O-][n+]1ccccc1[S-]` [sodium pyrithione]: the water solubility result is on record as “about 50%”.
